Drawing on patent publication US9732119B2, “Immunomodulators” (BRISTOL-MYERS SQUIBB COMPANY, priority 2014, dated 2017), this text covers IC50 for 15 compounds.

pIC50: −log10 of the molar value. Positions of bridges follow the written chain, without caps; N, C: chain ends. Non-standard residues stand in square brackets, D forms with d. Residues, ends and D or L forms follow the SMILES beside them. Trp(1-CH2COOH) = N[C@@H](Cc1cn(CC(=O)O)c2ccccc12)C(=O)O; Hyp = O=C(O)[C@@H]1C[C@@H](O)CN1; Aad = N[C@@H](CCCC(=O)O)C(=O)O; NMeNle = CCCC[C@H](NC)C(=O)O; Pip = O=C(O)[C@@H]1CCCCN1; NMeA = CN[C@@H](C)C(=O)O; Orn = NCCC[C@H](N)C(=O)O; Dab = NCC[C@H](N)C(=O)O; Dap = NC[C@H](N)C(=O)O; AEA = NCCOCC(=O)O; Ava = NCCCCC(=O)O

For this assay, the target named is T1, PD-1-Ig binding to PD-L1-TVMV-His (PD-L1-His) (Homo sapiens, UniProt Q9NZQ7).
T1 construct: hPDL1(19-239)-TVMV-His; made in house; host or cells: HEK293T cells
T1 sequence (Q9NZQ7 with tags, fused parts or gaps): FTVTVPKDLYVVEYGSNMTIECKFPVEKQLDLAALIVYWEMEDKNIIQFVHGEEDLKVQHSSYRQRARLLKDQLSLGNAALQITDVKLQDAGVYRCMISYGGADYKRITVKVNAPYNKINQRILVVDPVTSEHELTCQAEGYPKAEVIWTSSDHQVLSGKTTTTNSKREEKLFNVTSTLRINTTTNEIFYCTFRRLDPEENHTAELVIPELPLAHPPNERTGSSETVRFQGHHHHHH
In words: PD-1/PD-L1 Homogenous Time-Resolved Fluorescence (HTRF) binding assay. Conditions: PD-1-Ig (20 nM) / PD-L1-His (10 nM). Put shortly: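 HTRF competition: compound pre-incubated 15 min with PD-L1-His (10 nM final), then PD-1-Ig (20 nM final) added for 15 min in dPBS, 0.1% BSA, 0.05% Tween-20. Detection with Eu-cryptate anti-Ig (1 nM) and APC anti-His (20 nM) antibodies.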

As a reminder, the pIC50 is the IC50 on a negative log10 scale, so that one unit is a factor of ten.

For the setting “range classes”, `CCCC[C@H]1C(=O)N(C)[C@@H](CCCC)C(=O)N[C@@H](CC(C)C)C(=O)NCCOCC(=O)N[C@@H](Cc2ccccc2)C(=O)N(C)[C@@H](C)C(=O)N[C@@H](CC(C)C)C(=O)N2CCC[C@H]2C(=O)NCC(=O)N[C@@H](CC(C)C)C(=O)N2CCC[C@H]2C(=O)N[C@@H](Cc2ccccc2)C(=O)NCC(=O)N[C@@H](Cc2ccccc2)C(=O)N1C` [Example 10500] (cyclo([AEA]F[NMeA]LPGLPFGF[NMeNle][NMeNle]L)) showed a pIC50 of 5.00 to 7.00.
Same read-out and setting: next, `CCCC[C@H]1C(=O)N(C)[C@@H](CCCC)C(=O)N[C@@H](CC(C)C)C(=O)NCCOCC(=O)N[C@@H](Cc2ccc(O)cc2)C(=O)N(C)[C@@H](C)C(=O)N[C@@H](CC(N)=O)C(=O)N2CCC[C@H]2C(=O)N[C@@H](CN)C(=O)N[C@@H](CC(C)C)C(=O)N2C[C@H](O)C[C@H]2C(=O)N[C@@H](Cc2c[nH]c3ccccc23)C(=O)N[C@@H](CCN)C(=O)N[C@@H](Cc2c[nH]c3ccccc23)C(=O)N1C` [Example 10501] (cyclo([AEA]Y[NMeA]NP[Dap]L[Hyp]W[Dab]W[NMeNle][NMeNle]L)): 8.00 to 9.00; `CCCC[C@H]1C(=O)N(C)[C@@H](CCCC)C(=O)N[C@@H](CC(C)C)C(=O)NCCOCC(=O)N[C@@H](Cc2ccc(O)cc2)C(=O)N(C)[C@@H](C)C(=O)N[C@@H](CC(N)=O)C(=O)N2CCC[C@H]2C(=O)N[C@@H](CN)C(=O)N[C@@H](CC(C)C)C(=O)N2C[C@H](O)C[C@H]2C(=O)N[C@@H](Cc2c[nH]c3ccccc23)C(=O)N[C@@H](CCN)C(=O)N[C@@H](Cc2cn(CC(=O)O)c3ccccc23)C(=O)N1C` [Example 10502] (cyclo([AEA]Y[NMeA]NP[Dap]L[Hyp]W[Dab][Trp(1-CH2COOH)][NMeNle][NMeNle]L)): 8.00 to 9.00; `CCCC[C@H]1C(=O)N(C)[C@@H](CCCC)C(=O)N[C@@H](CC(C)C)C(=O)NCCOCC(=O)N[C@@H](Cc2ccc(O)cc2)C(=O)N(C)[C@@H](C)C(=O)N[C@@H](CC(N)=O)C(=O)N2CCC[C@H]2C(=O)N[C@@H](CN)C(=O)N[C@@H](CC(C)C)C(=O)N2C[C@H](O)C[C@H]2C(=O)N[C@@H](Cc2c[nH]c3ccccc23)C(=O)N[C@@H](CO)C(=O)N[C@@H](Cc2cn(CC(=O)O)c3ccccc23)C(=O)N1C` [Example 10503] (cyclo([AEA]Y[NMeA]NP[Dap]L[Hyp]WS[Trp(1-CH2COOH)][NMeNle][NMeNle]L)): 7.00 to 8.00.
The same measure, in the same setting: next, `CCCC[C@H]1C(=O)N(C)[C@@H](CCCC)C(=O)N[C@@H](CC(C)C)C(=O)NCCCCC(=O)N[C@@H](Cc2ccc(O)cc2)C(=O)N(C)[C@@H](C)C(=O)N[C@@H](CC(N)=O)C(=O)N2CCC[C@H]2C(=O)N[C@@H](CN)C(=O)N[C@@H](CC(C)C)C(=O)N2C[C@H](O)C[C@H]2C(=O)N[C@@H](Cc2c[nH]c3ccccc23)C(=O)N[C@@H](CCN)C(=O)N[C@@H](Cc2c[nH]c3ccccc23)C(=O)N1C` [Example 10505] (cyclo([Ava]Y[NMeA]NP[Dap]L[Hyp]W[Dab]W[NMeNle][NMeNle]L)): 8.00 to 9.00; `CCCC[C@H]1C(=O)N(C)[C@@H](CCCC)C(=O)N[C@@H](CC(C)C)C(=O)NCCCCC(=O)N[C@@H](Cc2ccc(O)cc2)C(=O)N(C)[C@@H](C)C(=O)N[C@@H](CC(N)=O)C(=O)N2CCC[C@H]2C(=O)N[C@@H](CN)C(=O)N[C@@H](CCC(=O)O)C(=O)N2C[C@H](O)C[C@H]2C(=O)N[C@@H](Cc2c[nH]c3ccccc23)C(=O)N[C@@H](CCN)C(=O)N[C@@H](Cc2cn(CC(=O)O)c3ccccc23)C(=O)N1C` [Example 10506] (cyclo([Ava]Y[NMeA]NP[Dap]E[Hyp]W[Dab][Trp(1-CH2COOH)][NMeNle][NMeNle]L)): 8.00 to 9.00; `CCCC[C@H]1C(=O)N(C)[C@@H](CCCC)C(=O)N[C@@H](CC(C)C)C(=O)N[C@H](C(=O)NCC(N)=O)CCCC(=O)N[C@@H](Cc2ccc(O)cc2)C(=O)N(C)[C@@H](C)C(=O)N[C@@H](CC(N)=O)C(=O)N2CCC[C@H]2C(=O)N[C@@H](CN)C(=O)N[C@@H](CCC(=O)O)C(=O)N2C[C@H](O)C[C@H]2C(=O)N[C@@H](Cc2c[nH]c3ccccc23)C(=O)N[C@@H](CCN)C(=O)N[C@@H](Cc2cn(CC(=O)O)c3ccccc23)C(=O)N1C` [Example 10507] (Y[NMeA]NP[Dap]E[Hyp]W[Dab][Trp(1-CH2COOH)][NMeNle][NMeNle]L[Aad]G-NH2; lactam N-14): 8.00 to 9.00.
On the same count and under the same terms, next, `CCCC[C@H]1C(=O)N(C)[C@@H](CCCC)C(=O)N[C@@H](CC(C)C)C(=O)N[C@H](C(=O)NCC(N)=O)CCCC(=O)N[C@@H](Cc2ccc(O)cc2)C(=O)N2CCCC[C@H]2C(=O)N[C@@H](CC(N)=O)C(=O)N2CCC[C@H]2C(=O)N[C@@H](CN)C(=O)N[C@@H](CCC(=O)O)C(=O)N2C[C@H](O)C[C@H]2C(=O)N[C@@H](Cc2c[nH]c3ccccc23)C(=O)N[C@@H](CCN)C(=O)N[C@@H](Cc2cn(CC(=O)O)c3ccccc23)C(=O)N1C` [Example 10508] (Y[Pip]NP[Dap]E[Hyp]W[Dab][Trp(1-CH2COOH)][NMeNle][NMeNle]L[Aad]G-NH2; lactam N-14): 7.00 to 8.00.
`CCCC[C@H]1C(=O)N(C)[C@@H](CCCC)C(=O)N[C@@H](CC(C)C)C(=O)NCCCCC(=O)N[C@@H](Cc2ccc(O)cc2)C(=O)N(C)[C@@H](C)C(=O)N[C@@H](CC(=O)O)C(=O)N2CCC[C@H]2C(=O)N[C@@H](Cc2c[nH]cn2)C(=O)N[C@@H](CCCCN)C(=O)N2C[C@H](O)C[C@H]2C(=O)N[C@@H](Cc2c[nH]c3ccccc23)C(=O)N[C@@H](CCCCN)C(=O)N[C@@H](Cc2cn(CC(=O)O)c3ccccc23)C(=O)N1C` [Example 10509] (cyclo([Ava]Y[NMeA]DPHK[Hyp]WK[Trp(1-CH2COOH)][NMeNle][NMeNle]L)): the pIC50 (numeric values) was 6.12.
Compound `CCCC[C@H]1C(=O)N(C)[C@@H](CCCC)C(=O)N[C@@H](CC(C)C)C(=O)NCCCCC(=O)N[C@@H](Cc2ccc(O)cc2)C(=O)N2CCCC[C@H]2C(=O)N[C@@H](CC(=O)O)C(=O)N2CCC[C@H]2C(=O)N[C@@H](Cc2c[nH]cn2)C(=O)N[C@@H](CCCCN)C(=O)N2C[C@H](O)C[C@H]2C(=O)N[C@@H](Cc2c[nH]c3ccccc23)C(=O)N[C@@H](CCCCN)C(=O)N[C@@H](Cc2cn(CC(=O)O)c3ccccc23)C(=O)N1C` [Example 10510] (cyclo([Ava]Y[Pip]DPHK[Hyp]WK[Trp(1-CH2COOH)][NMeNle][NMeNle]L)) gave a negative-log IC50 (pIC50) (range classes) of 5.00 to 7.00.
On the same count and under the same terms, next, `CCCC[C@H]1C(=O)N(C)[C@@H](CCCC)C(=O)N[C@@H](CC(C)C)C(=O)NCCC[C@H](N)C(=O)N[C@@H](Cc2ccc(O)cc2)C(=O)N2CCCC[C@H]2C(=O)N[C@@H](CC(N)=O)C(=O)N2CCC[C@H]2C(=O)N[C@@H](CN)C(=O)N[C@@H](CC(C)C)C(=O)N2CCC[C@H]2C(=O)N[C@@H](Cc2c[nH]c3ccccc23)C(=O)N[C@@H](CCN)C(=O)N[C@@H](Cc2cn(CC(=O)O)c3ccccc23)C(=O)N1C` [Example 10511] (H-[Orn]Y[Pip]NP[Dap]LPW[Dab][Trp(1-CH2COOH)][NMeNle][NMeNle]L; lactam 1-C): 5.00 to 7.00; `CCCC[C@H]1C(=O)N(C)[C@@H](CCCC)C(=O)N[C@@H](CC(C)C)C(=O)NCCCCC(=O)N[C@@H](Cc2ccc(O)cc2)C(=O)N2CCCC[C@H]2C(=O)N[C@@H](CC(N)=O)C(=O)N2CCC[C@H]2C(=O)N[C@@H](CN)C(=O)N[C@@H](CC(C)C)C(=O)N2C[C@H](O)C[C@H]2C(=O)N[C@@H](Cc2c[nH]c3ccccc23)C(=O)N[C@@H](CCN)C(=O)N[C@@H](Cc2cn(CC(=O)O)c3ccccc23)C(=O)N1C` [Example 10512] (cyclo([Ava]Y[Pip]NP[Dap]L[Hyp]W[Dab][Trp(1-CH2COOH)][NMeNle][NMeNle]L)): 5.00 to 7.00.
`CCCC[C@H]1C(=O)N(C)[C@@H](CCCC)C(=O)N[C@@H](CC(C)C)C(=O)NCCCCC(=O)N[C@@H](Cc2ccc(O)cc2)C(=O)N2CCCC[C@H]2C(=O)N[C@@H](CC(N)=O)C(=O)N2CCC[C@H]2C(=O)N[C@@H](CN)C(=O)N[C@@H](CCC(=O)O)C(=O)N2C[C@H](O)C[C@H]2C(=O)N[C@@H](Cc2c[nH]c3ccccc23)C(=O)N[C@@H](CCN)C(=O)N[C@@H](Cc2cn(CC(=O)O)c3ccccc23)C(=O)N1C` [Example 10513] (cyclo([Ava]Y[Pip]NP[Dap]E[Hyp]W[Dab][Trp(1-CH2COOH)][NMeNle][NMeNle]L)) had a negative-log IC50 (pIC50) (numeric values) of 6.45.
Take `CCCC[C@H]1C(=O)N(C)[C@@H](CCCC)C(=O)N[C@@H](CC(C)C)C(=O)N[C@H](C(=O)NCC(N)=O)CCCC(=O)N[C@@H](Cc2ccc(O)cc2)C(=O)N2CCCC[C@H]2C(=O)N[C@@H](CC(N)=O)C(=O)N2CCC[C@H]2C(=O)N[C@@H](CN)C(=O)N[C@@H](CC(C)C)C(=O)N2C[C@H](O)C[C@H]2C(=O)N[C@@H](Cc2c[nH]c3ccccc23)C(=O)N[C@@H](CCN)C(=O)N[C@@H](Cc2cn(CC(=O)O)c3ccccc23)C(=O)N1C` [Example 10515] (Y[Pip]NP[Dap]L[Hyp]W[Dab][Trp(1-CH2COOH)][NMeNle][NMeNle]L[Aad]G-NH2; lactam N-14): the pIC50 (range classes) was 7.00 to 8.00.
On the same count and under the same terms, next, `CCCC[C@H]1C(=O)N(C)[C@@H](CCCC)C(=O)N[C@@H](CC(C)C)C(=O)N[C@H](C(=O)NCC(N)=O)CCCC(=O)N[C@@H](Cc2ccc(O)cc2)C(=O)N(C)[C@@H](C)C(=O)N[C@@H](CC(=O)O)C(=O)N2CCC[C@H]2C(=O)N[C@@H](Cc2c[nH]cn2)C(=O)N[C@@H](CCCCN)C(=O)N2C[C@H](O)C[C@H]2C(=O)N[C@@H](Cc2c[nH]c3ccccc23)C(=O)N[C@@H](CCCCN)C(=O)N[C@@H](Cc2cn(CC(=O)O)c3ccccc23)C(=O)N1C` [Example 10516] (Y[NMeA]DPHK[Hyp]WK[Trp(1-CH2COOH)][NMeNle][NMeNle]L[Aad]G-NH2; lactam N-14): 7.00 to 8.00.
